Structures can show the parent of a compound that is named as a salt.

Experiment [1] deals with antigen-reactive Treg and Teff cells. As to the kind of experiment: Ki67 assay of antigen-reactive T cells in AFK mice. Format: in vivo, AFK mice (C57BL/6 Apoe-/- Foxp3-eGFP Ki67-tagRFP). The settings on record: FTY720 after 8206. Here is the method:
Preparation and Injection of Composition 8206. Composition 8206 was prepared in the same steps as described for 8203 (Example 1), except that R848 was used in place of MPLA. It was injected subcutaneously at the back flank in 50 μl of PBS. PBS containing DMSO (as “PBS”), which was the initial solvent for rapamycin and R848, was used as a control.
Ki67-TagRFP-Based In Vitro Proliferation Assay for T Cells (“Ki67 Assay”). Total cells were isolated from lymphoid organs, washed twice in RPMI 1640/10% FCS, and counted by flow cytometry as described in Example 1. A portion of the isolated cells was cultured at 1×10^6 cells/well in a 96-well U-bottom plate. The wells were filled with 200 μl of RPMI 1640/10% FCS supplemented with 2-mercaptoethanol (50 μM), murine IL-2 (20 ng/ml), MPLA (100 ng/ml), sodium pyruvate (1 mM), and a peptide antigen (3 μg/ml) or DMSO (as a solvent control for the antigen). After 5 days, the cells were analyzed by flow cytometry with a BD FACS Melody. Proliferating Treg and Teff cells were identified as CD4+Foxp-eGFP+Ki67-TagRFP+CD62L1o and CD4+Foxp-eGFP Ki 67-TagRFP+CD62L10 populations, respectively; the cells were counted by the method of Schlenke ((1998) Cytometry 33:310-317). […] The difference was expressed as count/organ by multiplying the total number of cells in an organ divided by the portion used in the assay. […]

Experiment [2] relates to KJ1-26+ Treg and Teff cells in DLN, NLNs and spleen. As to the kind of experiment: Inhibition of T cell egress with FTY720 in the model. The class given is in vivo, BALB/c Foxp3-eGFP mice. The conditions noted are these: FTY720 with OVA-in-8203. On the procedure:
Inhibition of T Cell Egress with FTY720. FTY720 was dissolved in DMSO at 20 μg/μl. On day 5 in the model, 1 μl of FTY720 was mixed with one dose of OVA-in-8203, and the mixture was injected into the primed footpad. As a control, 1 μl of DMSO was used in place of FTY720, and the mixture was injected into a control group. On days 6 and 7, the mice were given additional injections (i.p.) of FTY720 (or DMSO) at 1 μl (diluted in 100 μl PBS)/mouse/day. On day 8, KJ1-26^+ Treg and Teff cells in the DLN, NLNs, and the spleen were counted, as described earlier.

The subject of experiment [3] is monocyte-derived macrophages in DLN, NLN and spleen. Kind of experiment: Systemic MMφ influx into draining and non-draining lymph nodes (R848, 8206). Format: in vivo, C56BL/6 mice. On the procedure: FIGS. 9A-9B show the effect of R848 on draining lymph node (DLN) versus non-draining lymph node (NLN). (FIG. 9A) C56BL/6 mice (10-week-old) were injected at the right-footpad with 20 μl of PBS containing DMSO (control), 3 μg of MPLA, or an equal molar amount (0.6 μg) of R848. At 24 hours, monocyte-derived macrophages (MM) in both the DLN and the NLN were counted by flow cytometry. Data are mean±SD of four experiments (on a log scale). * p≤0.001 (one-way ANOVA). (FIG. 9B) Dose-response analysis of R848. C56BL/6 mice (10-week-old) were injected subcutaneously at the back flank with 50 μl of PBS containing 8 μg of dexamethasone, 20 μg of rapamycin, and an indicated dose of R848. At 24 h, MMφ in popliteal lymph nodes were counted. Shown is a nonlinearly fitted substrate inhibition curve for mean±SD of 4-8 LNs. * p≤0.01 (one-way ANOVA).
C56BL/6 mice (10-week-old) were injected subcutaneously at the back flank with 8206 or PBS. At 24 hours, MMO in popliteal (PLN), axillary (ALN), mesenteric (MLN), and caudal mediastinal (CLN) lymph nodes and the spleen (SP) were counted. Data are mean±SD of four experiments (on a log scale). *p≤0.01 (t-test).
Preparation and Injection of Composition 8206. Composition 8206 was prepared in the same steps as described for 8203 (Example 1), except that R848 was used in place of MPLA. It was injected subcutaneously at the back flank in 50 μl of PBS. […]

The test system of experiment [4] is MMφs, DCs, Treg cells and Teff cells in draining lymph node. Kind of experiment: Adjuvant-induced potentiation in lymphoid organs after footpad injection. Format: in vivo, mouse. The settings on record: one day. Here is the method:
Footpad Injection. “A footpad” means the footpad of the right hind leg. Adjuvant components, antigens, or their combinations were injected subcutaneously (s.c.) between the 3rd and 4th toes in a volume of ˜20 μl in phosphate-buffered saline (PBS) with a BD insulin syringe.
Dose-Response Analysis. For dose-response analysis of MPLA, the reagent was serially diluted in DMSO; 5 μl of the diluted reagent were mixed with 100 μl of PBS and the resulting mixture was injected at 20 μl/footpad. For dose 0, 5 μl of DMSO were mixed with 100 μl of PBS and the resulting mixture was injected. Dose-response analysis of rapamycin was performed similarly, except that PBS containing 3 μg of MPLA was used in place of PBS.
Analysis of Adjuvant-Induced Potentiation in Lymphoid Organs. […] Cells were analyzed by flow cytometry. […] The total counts of MMos (CD11^loCD40^lo) (Zheng et al. (2013) Eur. J. Immunol. 43:219-227) and DCs (all the CD11+CD40^+ cells after excluding the CD11^loCD40^lo cells) (Zheng et al. (2013) Eur. J. Immunol. 43:219-227) in the cell suspension were determined by the method of Schlenke et al. ((1998) Cytometry 33:310-317). The MMφ count in percent was calculated as % of the total MMO and DC counts combined. […]

For experiment [5], the system named is KJ1-26+ Treg and Teff cells. As to the kind of experiment: Mouse model testing tolerogenic adjuvants (the model): KJ1-26+ T cell counts and proliferation. The class given is in vivo, BALB/c Foxp3-eGFP mice. The conditions noted are these: OVA with indicated components once every 3 days. On the procedure:
Mouse Model Testing Tolerogenic Adjuvants (“the Model”). The model was generated as follows: On day 0, whole blood was collected with heparin as the anticoagulant from a DO11.10 Foxp3-eGFP mouse. The blood was diluted 1:50 in PBS and transfused intravenously (i.v.) into sex-matched syngeneic BALB/c Foxp3-eGFP mice at ˜100 μl (containing ˜4,000 CD4+KJ1-26^+ cells) per mouse. On day 1, the recipients were injected at a footpad with 100 μg of OVA in 20 μl of PBS (see “Footpad Injection”) and let rest. On day 5, they were used as the model.
Determination of CD4^+ T cell Counts in the Model. A cell suspension was prepared from the DLN, NLNs, or the spleen as described herein. For counting CD4^+ T cells in the DLN, a portion of the DLN cell suspension was stained with PE/Cy7 anti-CD3 and APC anti-CD4 and analyzed by flow cytometry. The total CD4^+ T cell count (CD3+CD4+) in the suspension was determined by the method of Schlenke et al. ((1998) Cytometry 33:310-317). […] Cells were analyzed by flow cytometry. The total counts in the suspension for KJ1-26^+ Treg, KJ1-26^+ Teff, host Treg, and host Teff cells were calculated as portions of the total CD4^+ T cell count. The count in percent for Treg cells (“% Treg”) was calculated as % of the total Treg and Teff counts combined. […]

Consider `CCCCCCCCc1ccc(CCC(N)(CO)CO)cc1` [FTY720, fingolimod HCl], for which the “accumulation of P210m-reactive Treg cells in spleen with egress blocker” value in experiment [1] is recorded as “could be inhibited”. Besides, the “gain of KJ1-26+ Treg counts in NLNs and spleen” value in experiment [2] was “could be blocked”.
As to `CCOCc1nc2c(N)nc3ccccc3c2n1CC(C)(C)O` [R848, resiquimod], the “optimal dose for systemic MMφ effect” value in experiment [3] (combined with 8 μg dexamethasone and 20 μg rapamycin, s.c. back flank) was “about 6 μg”.
Regarding monophosphoryl lipid A [MPLA], the “influx of MMφs, Teff cells, DCs and Treg cells to the DLN” value in experiment [4] (injected alone into a footpad, BALB/c mouse) was “induced an influx of MMφs and Teff cells preferentially over that of DCs and Treg cells”. The “abundance and absolute number of MMφs in the DLN” value in experiment [4] (single footpad injection, BALB/c) is listed as “attract MMS”. Further, the “role of component in prolonging Treg cell expansion / shortening Teff cell expansion in DLN” value in experiment [5] was “not required here for either effect”. Further, the “attraction of MMφs to non-draining lymph nodes” value in experiment [3] (footpad, 24 hours) is given as “could not”.

For the origin of these results see US20250222100A1, “COMPLETE TOLEROGENIC ADJUVANT AND METHODS OF USING THE SAME” (THE BOARD OF TRUSTEES OF THE UNIVERSITY OF ILLINOIS, priority 2024, published 2025).
